Patent US8697683B2, “Azetidinyl diamides as monoacylglycerol lipase inhibitors” (Janssen Pharmaceutica, NV, priority 2009, dated 2014)

molecular target: T1, MGL (Rattus norvegicus, UniProt Q8R431); experiment: 2-AG Accumulation Assay (rat brain homogenate); format: biochemical; settings: compound 1 μM, percent of vehicle 2-AG accumulation
T1 construct: one g rat brain was homogenized
T1 sequence (Q8R431 1-303): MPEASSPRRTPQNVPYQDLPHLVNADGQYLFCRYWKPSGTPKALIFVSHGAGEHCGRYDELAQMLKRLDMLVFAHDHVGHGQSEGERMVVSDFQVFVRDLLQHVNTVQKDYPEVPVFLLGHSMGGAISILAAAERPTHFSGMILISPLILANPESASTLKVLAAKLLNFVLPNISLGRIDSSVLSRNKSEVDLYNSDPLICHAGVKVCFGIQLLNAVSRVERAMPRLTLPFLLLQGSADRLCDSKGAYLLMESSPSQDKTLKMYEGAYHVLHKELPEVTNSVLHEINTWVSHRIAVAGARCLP

Rat Brain 2AG % VehCntrl (%) @1 μM	SMILES
1092%	Cc1c(C(=O)N2CC(N3CCN(C(=O)c4nccs4)CC3)C2)sc2cc(C(F)(F)F)ccc12 [Cpd 899, 1-(1-{[3-Methyl-6-(trifluoromethyl)-1-benzothiophen-2-yl]carbonyl}azetidin-3-yl)-4-(1,3-thiazol-2-ylcarbonyl)piperazine]
1013%	O=C(c1ccc(CNc2cccc(Cl)c2)cc1)N1CC(N2CCN(C(=O)c3nccs3)CC2)C1 [Cpd 455]
1014%	Cn1cc(Cc2ccc(F)cc2)c2ccc(C(=O)N3CC(N4CCN(C(=O)c5nccs5)CC4)C3)cc21 [Cpd 1026]
1282%	Cn1cc(-c2ccc(F)cc2)c2ccc(C(=O)N3CC(N4CCN(C(=O)c5nccs5)CC4)C3)cc21 [Cpd 1318, 3-(4-Fluorophenyl)-1-methyl-6-({3-[4-(1,3-thiazol-2-ylcarbonyl)piperazin-1-yl]azetidin-1-yl}carbonyl)-1H-indole]
1016%	O=C(c1ccc2c(ccn2-c2ccc(C(F)(F)F)cc2)c1)N1CC(N2CCN(C(=O)c3cscn3)CC2)C1 [Cpd 1359, 5-({3-[4-(1,3-Thiazol-4-ylcarbonyl)piperazin-1-yl]azetidin-1-yl}carbonyl)-1-[4-(trifluoromethyl)phenyl]-1H-indole]
1420%	O=C(c1ccc2c(ccn2-c2cccc(C(F)(F)F)c2)c1)N1CC(N2CCN(C(=O)c3nccs3)CC2)C1 [Cpd 1356, 5-({3-[4-(1,3-Thiazol-2-ylcarbonyl)piperazin-1-yl]azetidin-1-yl}carbonyl)-1-[3-(trifluoromethyl)phenyl]-1H-indole]
1086%	O=C(c1ccc(-c2nc(-c3ccccc3Cl)cs2)cc1)N1CC(N2CCN(C(=O)c3nccs3)CC2)C1 [Cpd 1328]
1017%	COc1c(C(=O)N2CC(N3CCN(C(=O)c4nccs4)CC3)C2)sc2cc(C(F)(F)F)ccc12 [Cpd 649, 1-(1-{[3-Methoxy-6-(trifluoromethyl)-1-benzothiophen-2-yl]carbonyl}azetidin-3-yl)-4-(1,3-thiazol-2-ylcarbonyl)piperazine]
1014%	O=C(c1ccc2c(c1)CCN2Cc1ccccc1)N1CC(N2CCN(C(=O)c3nccs3)CC2)C1 [Cpd 994, 1-Benzyl-5-({3-[4-(1,3-thiazol-2-ylcarbonyl)piperazin-1-yl]azetidin-1-yl}carbonyl)-2,3-dihydro-1H-indole]
1149%	O=C(c1ccc2c(-c3cccc(C(F)(F)F)c3)c[nH]c2c1)N1CC(N2CCN(C(=O)c3nccs3)CC2)C1 [Cpd 1341, 6-({3-[4-(1,3-Thiazol-2-ylcarbonyl)piperazin-1-yl]azetidin-1-yl}carbonyl)-3-[3-(trifluoromethyl)phenyl]-1H-indole]
1276%	O=C(c1ccc2c(-c3cccc(F)c3)c[nH]c2c1)N1CC(N2CCN(C(=O)c3nccs3)CC2)C1 [Cpd 1319]
1011%	O=C(c1nccs1)N1CCN(C2CN(C(=O)c3ccc(-c4cccc(C(F)(F)F)c4)cc3Cl)C2)CC1 [Cpd 250, 1-(1-{[3-Chloro-3′-(trifluoromethyl)biphenyl-4-yl]carbonyl}azetidin-3-yl)-4-(1,3-thiazol-2-ylcarbonyl)piperazine]
1287%	Cc1nc(-c2cccc(C(F)(F)F)c2)sc1C(=O)N1CC(N2CCN(C(=O)c3nccs3)CC2)C1 [Cpd 1407, 1-[1-({4-Methyl-2-[3-(trifluoromethyl)phenyl]-1,3-thiazol-5-yl}carbonyl)azetidin-3-yl]-4-(1,3-thiazol-2-ylcarbonyl)piperazine]
1213%	O=C(c1ccc(OCc2ccc(Cl)s2)cc1)N1CC(N2CCN(C(=O)c3nccs3)CC2)C1 [Cpd 962]
1336%	O=C(c1nccs1)N1CCN(C2CN(C(=O)c3sc4cc(Br)ccc4c3Cl)C2)CC1 [Cpd 326, 1-{1-[(6-Bromo-3-chloro-1-benzothiophen-2-yl)carbonyl]azetidin-3-yl}-4-(1,3-thiazol-2-ylcarbonyl)piperazine]
1183%	O=C(c1ccc2c(ccn2-c2ccc(F)cc2)c1)N1CC(N2CCN(C(=O)c3cscn3)CC2)C1 [Cpd 1358, 1-(4-Fluorophenyl)-5-({3-[4-(1,3-thiazol-4-ylcarbonyl)piperazin-1-yl]azetidin-1-yl}carbonyl)-1H-indole]
1215%	O=C(c1nccs1)N1CCN(C2CN(C(=O)c3sc4cc(C(F)(F)F)ccc4c3Cl)C2)CC1 [Cpd 324, 1-(1-{[3-Chloro-6-(trifluoromethyl)-1-benzothiophen-2-yl]carbonyl}azetidin-3-yl)-4-(1,3-thiazol-2-ylcarbonyl)piperazine]
1314%	Cn1cc(-c2cccc(F)c2)c2ccc(C(=O)N3CC(N4CCN(C(=O)c5nccs5)CC4)C3)cc21 [Cpd 1142]
1080%	O=C(c1ccc(Cc2cccc(C(F)(F)F)c2)cc1)N1CC(N2CCN(C(=O)c3nccs3)CC2)C1 [Cpd 995]
1021%	O=C(c1ccc2c(ccn2-c2ncccn2)c1)N1CC(N2CCN(C(=O)c3nccs3)CC2)C1 [Cpd 1174, 1-Pyrimidin-2-yl-5-({3-[4-(1,3-thiazol-2-ylcarbonyl)piperazin-1-yl]azetidin-1-yl}carbonyl)-1H-indole]
2111%	O=C(c1ccc2c(-c3ccccc3)cccc2c1)N1CC(N2CCN(C(=O)c3nccs3)CC2)C1 [Cpd 338, 1-{1-[(5-Phenylnaphthalen-2-yl)carbonyl]azetidin-3-yl}-4-(1,3-thiazol-2-ylcarbonyl)piperazine]
1442%	O=C(c1ccc(OCc2cccc(Cl)c2)cc1)N1CC(N2CCN(C(=O)c3nccs3)CC2)C1 [Cpd 957]
1133%	Cn1cc(-c2cccc(C(F)(F)F)c2)c2ccc(C(=O)N3CC(N4CCN(C(=O)c5nccs5)CC4)C3)cc21 [Cpd 1100]

SMILES	Rat Brain 2AG % VehCntrl (%) @1 μM
O=C(c1nn(-c2ccc(Cl)cc2Cl)c2c1CCC/C2=C\c1ccc(Cl)cc1)N1CC(N2CCN(C(=O)C(F)(F)F)CC2)C1 [Cpd 1020]	135%

same assay, conditions: compound 10 μM, percent of vehicle 2-AG accumulation

Rat Brain 2AG % VehCntrl (%) @10 μM	SMILES
1258%	O=C(c1ccc(-c2ccc(F)cc2)cc1)N1CC(N2CCN(C(=O)c3nccs3)CC2)C1 [Cpd 174, 1-{1-[(4′-Fluorobiphenyl-4-yl)carbonyl]azetidin-3-yl}-4-(1,3-thiazol-2-ylcarbonyl)piperazine]
1019%	CN(CC1CCCCC1)c1ccc(CCC(=O)N2CC(N3CCN(C(=O)c4nccs4)CC3)C2)cc1 [Cpd 291, N-(Cyclohexylmethyl)-N-methyl-4-(3-oxo-3-{3-[4-(1,3-thiazol-2-ylcarbonyl)piperazin-1-yl]azetidin-1-yl}propyl)aniline]
1091%	O=C(c1ccc(-c2ccc([N+](=O)[O-])cc2)cc1)N1CC(N2CCN(C(=O)c3nccs3)CC2)C1 [Cpd 215, 1-{1-[(4′-Nitrobiphenyl-4-yl)carbonyl]azetidin-3-yl}-4-(1,3-thiazol-2-ylcarbonyl)piperazine]
1304%	O=C(c1ccc(-c2cccc(C(F)(F)F)c2)cc1)N1CC(N2CCN(C(=O)c3cscn3)CC2)C1 [Cpd 229, 1-(1,3-Thiazol-4-ylcarbonyl)-4-(1-{[3′-(trifluoromethyl)biphenyl-4-yl]carbonyl}azetidin-3-yl)piperazine]
1124%	Cc1cccc(-c2ccc(C(=O)N3CC(N4CCN(C(=O)c5nccs5)CC4)C3)cc2)c1 [Cpd 176, 1-{1-[(3′-Methylbiphenyl-4-yl)carbonyl]azetidin-3-yl}-4-(1,3-thiazol-2-ylcarbonyl)piperazine]
1608%	O=C(c1ccc(SCc2ccc(Cl)c(Cl)c2)cc1)N1CC(N2CCN(C(=O)c3nccs3)CC2)C1 [Cpd 414, 1-[1-({4-[(3,4-Dichlorobenzyl)sulfanyl]phenyl}carbonyl)azetidin-3-yl]-4-(1,3-thiazol-2-ylcarbonyl)piperazine]
1327%	O=C(c1nccs1)N1CCN(C2CN(C(=O)c3ccc(-c4cccc(C(F)(F)F)c4)cc3Cl)C2)CC1 [Cpd 250, 1-(1-{[3-Chloro-3′-(trifluoromethyl)biphenyl-4-yl]carbonyl}azetidin-3-yl)-4-(1,3-thiazol-2-ylcarbonyl)piperazine]
1121%	O=C(c1ccccc1)N1CCN(C2CN(C(=O)c3ccc(NCc4ccc(F)c(C(F)(F)F)c4)cc3)C2)CC1 [Cpd 494, N-[4-Fluoro-3-(trifluoromethyl)benzyl]-4-({3-[4-(phenylcarbonyl)piperazin-1-yl]azetidin-1-yl}carbonyl)aniline]
1265%	O=C(c1nccs1)N1CCN(C2CN(C(=O)c3sc4cc(C(F)(F)F)ccc4c3Cl)C2)CC1 [Cpd 324, 1-(1-{[3-Chloro-6-(trifluoromethyl)-1-benzothiophen-2-yl]carbonyl}azetidin-3-yl)-4-(1,3-thiazol-2-ylcarbonyl)piperazine]
1285%	O=C(c1ccc(Oc2cccc(Cl)c2)c(F)c1)N1CC(N2CCN(C(=O)c3nccs3)CC2)C1 [Cpd 875]
1271%	O=C(c1ccc(SCc2cccc(Cl)c2)cc1)N1CC(N2CCN(C(=O)c3nccs3)CC2)C1 [Cpd 412, 1-[1-({4-[(3-Chlorobenzyl)sulfanyl]phenyl}carbonyl)azetidin-3-yl]-4-(1,3-thiazol-2-ylcarbonyl)piperazine]
1406%	O=C(c1ccccc1)N1CCN(C2CN(C(=O)c3ccc4nc(-c5cccc(C(F)(F)F)c5)oc4c3)C2)CC1 [Cpd 131, 6-({3-[4-(Phenylcarbonyl)piperazin-1-yl]azetidin-1-yl}carbonyl)-2-[3-(trifluoromethyl)phenyl]-1,3-benzoxazole]
1192%	O=C(c1ccc(-c2ccc(F)c(Cl)c2)cc1)N1CC(N2CCN(C(=O)c3nccs3)CC2)C1 [Cpd 178, 1-{1-[(3′-Chloro-4′-fluorobiphenyl-4-yl)carbonyl]azetidin-3-yl}-4-(1,3-thiazol-2-ylcarbonyl)piperazine]
1681%	CC(=O)c1ccc(-c2ccc(C(=O)N3CC(N4CCN(C(=O)c5nccs5)CC4)C3)cc2)cc1 [Cpd 209, 1-[4′-({3-[4-(1,3-Thiazol-2-ylcarbonyl)piperazin-1-yl]azetidin-1-yl}carbonyl)biphenyl-4-yl]ethanone]
